Experimental data published in patent US20090176776A1, “SMALL MOLECULE INHIBITORS OF HIV-1 CAPSID ASSEMBLY” (UNIVERSITY OF ALABAMA AT BIRMINGHAM, priority 2005, published 2009).

Key:
[1] = molecular target: T1, recombinant HIV-1 capsid protein (CA) (Human immunodeficiency virus type 1 group M subtype B, UniProt P12493); assay: Turbidity based HIV-1 capsid assembly assay; assay type: biochemical; conditions: initial assembly rate by turbidity; twofold dilutions over a 128 fold range; 30 μM CA, 2.25 M NaCl
T1 construct: recombinant HIV-1 capsid protein (CA); made in house
Protocol: The kinetics can be followed by monitoring the increase of turbidity using a spectrophotometer. The IC50 of the chemical compound tested is determined by titration. As the C-domain inhibits capsid assembly by forming CA-C-domain heterodimers, the effect of added C-terminal domain on the rate of assembly was evaluated by plotting the rate of assembly versus C-terminal domain concentration.
Soluble HIV-1 capsid protein can be triggered to assemble into tubes similar in diameter and morphology to intact cores by dilution into high iconic strength buffer. The kinetics of assembly can be followed by monitoring the increase in turbidity using a spectrophotometer (Lanham et al., J. Virol., 76:6900, 2002). This assembly assay was adapted to a 96-well, microplate format to allow for medium-throughput screening of compounds by measuring turbidity in a Nepeloskan Ascent plate reader (Thermo Electron Corp., UK). A DIVERSet™ library of 10,000 low molecular weight, “drug-like” compounds was purchased from ChemBridge Corp. (San Diego, Calif.). This library was selected for its potential bioavailability and application based on a pharmacophore diversity analysis. The average molecular weight of the compounds is 347 g/mol, the range being 200-596 g/mol. The compounds came plated in 96-well plates and solubilized in DMSO at 5 mgs/mL.
Turbidity based assay. A 1.5 μL aliquot of compound was diluted 90-fold into 50 mM Na2HPO4, […] buffer, pH 8 in an optically clear 96-well plate. The plate containing compounds and salt was read to check for compound solubility and to serve as a background reading for the assay. To initiate the assembly reaction, 15 μL of […] stock (in 50 mM Na2HPO4 pH 8) of recombinant HIV-1 capsid protein (CA), purified as described (Lanman et al., J. Virol., 76:6900, 2002), was added to each well of the 96-well plate using a multi-channel pipettor. […] Furthermore, the halftime of the assembly reaction is ˜5 minutes so reading the plate in thirds prevented loss of initial rate data. Therefore, CA was added to the first 4 lanes, the reactions followed for ten minutes, reading was paused, CA was then added to the next four lanes and the process repeated. Instrument settings are as follows: PMT gain of 500 V, lamp at 10V, and integration time of 60 ms. The data were exported to a custom designed Excel spreadsheet that allowed simultaneous plotting of kinetic curves.
Recombinant CA protein was purified as previously described and stored at 300 μM at −80° C. A turbidity based assembly assay, described above, was adapted to a 96-well, microplate format to allow for medium-throughput screening of compounds in a Nepheloskan Ascent plate reader (Thermo Electron Corp., UK). A 1.5 μL aliquot of compound or DMSO was diluted 90-fold into 50 mM Na2HPO4, 2.25 M NaCl buffer, pH 8 in an optically clear 96-well plate. To initiate the assembly reaction, 15 μL of the 300 μM stock (in 50 mM Na2HPO4 pH 8) of recombinant HIV-1 capsid protein (CA), was added to each well of the 96-well plate using a multi-channel pipettor.

[2] = MTS score (Table 1; method not described); assay type: cell-based; conditions: for MTS AVG 4 (No Effect): average of the MTS scores at 10, 30 and 100 μM; for MTS 10 μM: score at nominal 10 μM; for MTS 10 μM / MTS 30 μM / MTS 100 μM: 4 = No Effect; for MTS 30 μM: score at nominal 30 μM; for MTS 100 μM: score at nominal 100 μM
HIV-1YU2 = assay: Anti-HIV assay (multiple round), luciferase expression in Luc-M7 cells; assay type: cell-based; conditions: Luc-M7 cells infected with HIV-1YU2, 6 days, Bright-Glo
Protocol: (§1) Anti-HIV Assays (Multiple Round). The inhibitory effects of the tested compounds on HIV-1YU2 replication were determined by the level of luciferase expression after 6 days of infection using Bright-Glo assay (Promega). An amount of 1.5×10^4 Luc-M7 (a gift from Ned Landau) cells per ml were infected with HIV-1YU2 at a multiplicity of infection (MOI) of 3. The HIV-1 infected ([…] compound) or mock-infected (0-300 μM compound) Luc-M7 cells were placed in 96-well culture plates (100 μl/well) with 100 μl of various concentrations of the compounds with 20 μg/ml DEAE Dextran in triplicate and incubated at 37° C. under 5% CO2 at 100% humidity. After 6 days, cell viability was quantified by Cell-Titer Glo assay (Promega). […] On day 5 cell viability was determined in the mock-infected cells. FIGS. 12-18 show the anti-HIV assays for the examples of chemical compounds used according to the invention. After in-vitro assay, the chemical compounds in FIGS. 12-18 were selected for screening for cell viability and toxicity. Jurkat cells assay was used as screening assay. […] After five days, GFP expression was read. Cell viability was monitored with Alamar Blue assay. Luc M7 assay was designed to measure inhibitory activity of the chemical compounds to viral replication. After infection of cells with YU2 virus, plate cells in 96-well plate in the presence of six concentration of compounds in DMSO. At day 6, the number of cells in wells were read with Cell Titer Glo kit or by counting the number of cells infected with Bright Glo kit. 293T cells assay was designed to determine the toxicity. 293T cells were transfected with NL43. After four hours, transfected cells were plated in 96-well plate in DMSO and 2 μM Indinavir. 72 hours later, viral supernatant was collected and plated on J[…].

Luc-M7 cells = assay: Cell viability of Luc-M7 cells (Cell-Titer Glo); assay type: cell-based; design: unit: μM; conditions: mock-infected Luc-M7 cells, 6 days
Protocol: as §1

| Structure (SMILES) | IC50 [1] | MTS AVG 4 (No Effect) [2] | MTS 10 μM [2] | MTS 30 μM [2] | MTS 100 μM [2] | IC50 (HIV-1YU2) | TC50 (Luc-M7 cells) |
| --- | --- | --- | --- | --- | --- | --- | --- |
| Cc1ccc(OCC(=O)NN=Cc2c(Br)cc(Br)c(O)c2Br)cc1 [Compound 3] | 7 µM | 3.667 | 4 | 3 | 4 |  |  |
| CC(=NNC(=O)C(O)c1ccccc1)c1ccc2c(c1)CCCC2 (stereo not drawn) [Compound 6] | 9 µM | 3.000 | 4 | 3 | 2 | 15.4 µM | 36.8 |
| CCOC(=O)c1c(N2C(=O)C=CC2=O)sc2c1CCCC2 [Compound 8] | 4 µM | 3.667 | 4 | 4 | 3 | 13.3 µM | 27.7 |
| Oc1ccc(C=NNc2cc(N3CCOCC3)nc(N3CCOCC3)n2)c(O)c1 [Compound 9] | 7 µM | 2.000 | 4 | 1 | 1 |  |  |
| Nc1nc(-c2ccccc2Cl)cs1 [Compound 15] | 60 µM | 3.000 | 4 | 3 | 2 | 19.8 µM | 58.9 |
| Cc1cc(F)ccc1NCc1ccccn1 [Compound 16] | 95 µM | 3.000 | 4 | 4 | 1 | 17.8 µM | 66.5 |
| Cc1ccc(NCC(=O)NN=Cc2c(Br)cc(Br)c(O)c2Br)cc1 [Compound 17] | 11 µM | 2.333 | 4 | 1 | 2 |  |  |
| O=C(NN=Cc1c(Br)cc(Br)c(O)c1Br)c1ccccc1[N+](=O)[O-] [Compound 23] | 12 µM | 3.667 | 4 | 4 | 3 |  |  |
| O=C(NN=Cc1cc(Cl)cc([N+](=O)[O-])c1O)c1ccc2c(c1)OCO2 [Compound 37] |  | 2.000 | 4 | 1 | 1 |  |  |
| CC(C)(C)c1ccc(OCC(=O)NN=Cc2ccc(O)c([N+](=O)[O-])c2)cc1 [Compound 38] | 35 µM | 3.333 | 4 | 3 | 3 |  |  |
| COc1c(O)ccc(C=NNC(=O)COc2cccc(C)c2)c1[N+](=O)[O-] [Compound 39] | 28 µM | 2.333 | 4 | 2 | 1 |  |  |
| O=C(O)c1ccc2c(c1)C1C=CCC1C(c1ccc([N+](=O)[O-])cc1)N2 (stereo not drawn) [Compound 41] | 18 µM | 3.667 | 4 | 4 | 3 | 2.1 µM | 65.8 |
| O=C1Nc2c(Br)cc(Br)cc2C1=NNC(=O)C(O)c1ccccc1 (stereo not drawn) [Compound 50] | 15 µM | 2.333 | 4 | 2 | 1 |  |  |
| O=C(COc1ccc2ccccc2c1)NN=Cc1cc(O)c(O)c(Br)c1 [Compound 53] | 33 µM | 2.000 | 4 | 1 | 1 |  |  |
| Cc1ccc(OCC(=O)NN=Cc2ccncc2)cc1 [Compound 56] | 40 µM | 3.333 | 4 | 3 | 3 |  |  |
| O=C(O)c1ccc2c(c1)C1C=CCC1C(c1cccc([N+](=O)[O-])c1)N2 (stereo not drawn) [Compound 59] | 22 µM | 4.000 | 4 | 4 | 4 | 4.5 µM | 84.1 |
| CC(C)(C)c1ccc(OCCN2CCOCC2)cc1 [Compound 60] | 75 µM | 3.333 | 4 | 4 | 2 | 6.98 µM | 125.3 |
| Cc1ccc(C(C)C)c(OCC(=O)NN=Cc2ccc(C(=O)O)cc2)c1 [Compound 65] | 14 µM | 3.667 | 4 | 4 | 3 |  |  |
| COc1ccc(OCC(=O)NN=Cc2cc(O)c(O)c(Br)c2)c(Br)c1 [Compound 71] | 24 µM | 2.333 | 4 | 2 | 1 |  |  |
